The record followed here is publication PMC13576449, “Small-Molecule Activators of PRMT1: Discovery, SAR Analyses, and Proapoptotic Effects in Pancreatic Cancer Cells” (Journal of Medicinal Chemistry, 2026).

The subject of one assay is PANC-1 cells. The assay is described as follows: CaspaseGlo 3/7 apoptosis assay, PANC-1. The assay is classed as cell-based, human. The conditions noted are these: TR-07 10 μM or gemcitabine 10 and 25 nM, 72 h. The method, then:
(§1) 6 Effect of small-molecule modulators on gemcitabine-induced apoptosis and tumor growth of PDAC cells. […] After 2 h, gemcitabine (GEM) was added at increasing concentrations (10 and 25 nM) or not (−) for another incubation of 72 h. Subsequently, the luminescence-based caspase3/7 assay was performed. The activity of caspase 3/7 in treated cells was normalized to the activity measured in untreated cells (dark gray bar), which was set to 1 (mean SD, n = 6 for PANC-1 and n = 4 for PaTu8988T; *: p ≤ 0.05, **: p ≤ 0.01, ***: p ≤ 0.001, using the student t-test). […] After 24 h, gemcitabine (GEM, 1 μM) was added (+) or not (−) for another incubation of 48 h. Subsequently, the apoptotic cell fraction was quantified in % by flow cytometry using FITC-labeled Annexin V (AV) and propidium iodide (PI) staining (in B: mean ± SD, n = 6 for PANC-1 and n = 5 for PaTu8988T; **: p ≤ 0.01, ***: p ≤ 0.001, ****: p ≤ 0.0001, using the student t-test). […] Viable cells are AV/PI double-negative (AV–/PI–, lower left quadrant, Q4), early apoptotic cells are AV single-positive (AV+/PI– upper left quadrant, Q1), late apoptotic cells are AV/PI double-positive (AV+/PI+, upper right quadrant, Q2), and necrotic cells are PI single-positive (AV–/PI+, lower right quadrant, Q3). The sum of early and late apoptotic cell numbers ([…] in %) is indicated in red. D-G: The workflow of the PDAC xenograft experiments in mice is depicted in D. PANC-1 cells (2 × 10^6 cells/mouse) were subcutaneously (s.c.) injected in the right flank of female athymic nude mice. Small tumor nodules appeared 6 days post-engraftment. […] Tumor volumes were measured every second day using a digital caliper. […] At the end of the 2 weeks, mice were sacrificed and tumors were dissected (F).
(§2) For quantification of apoptosis using the CaspaseGlo 3/7 assay (Promega), PANC-1 and PaTu8988T cells were seeded in triplicates in white 96-well plate (5 × 10^3 cells/well) and cultured in the absence or presence of compounds. After 2 h, as soon as the cells had settled, gemcitabine was added or not, and cells were incubated for another 72 h. Subsequently, the caspase3/7 activity was measured using the luminescence-based CaspaseGLO-3/7 assay (Promega). To this end, the CaspaseGlo reagent was subsequently added to the cells at a 1:1 ratio and incubated at room temperature and under agitation for 30 min protected from light. The luminescence measurements were carried out using a microplate reader (Mithras LB 940, Berthold).

The test system of assay [1] is PaTu8988T cells. The assay is described as follows: Annexin V/PI flow cytometry apoptosis assay, PaTu8988T. The settings on record: Homo sapiens, PaTu 8988t, 48 h; read-out: Q4, viable cells (AV–/PI–). Format: cell-based, human. On the procedure:
6 Effect of small-molecule modulators on gemcitabine-induced apoptosis and tumor growth of PDAC cells. […] Subsequently, the luminescence-based caspase3/7 assay was performed. The activity of caspase 3/7 in treated cells was normalized to the activity measured in untreated cells (dark gray bar), which was set to 1 (mean SD, n = 6 for PANC-1 and n = 4 for PaTu8988T; *: p ≤ 0.05, **: p ≤ 0.01, ***: p ≤ 0.001, using the student t-test). […] After 24 h, gemcitabine (GEM, 1 μM) was added (+) or not (−) for another incubation of 48 h. Subsequently, the apoptotic cell fraction was quantified in % by flow cytometry using FITC-labeled Annexin V (AV) and propidium iodide (PI) staining (in B: mean ± SD, n = 6 for PANC-1 and n = 5 for PaTu8988T; **: p ≤ 0.01, ***: p ≤ 0.001, ****: p ≤ 0.0001, using the student t-test). […] Viable cells are AV/PI double-negative (AV–/PI–, lower left quadrant, Q4), early apoptotic cells are AV single-positive (AV+/PI– upper left quadrant, Q1), late apoptotic cells are AV/PI double-positive (AV+/PI+, upper right quadrant, Q2), and necrotic cells are PI single-positive (AV–/PI+, lower right quadrant, Q3). The sum of early and late apoptotic cell numbers (Q2+Q3 in %) is indicated in red. D-G: The workflow of the PDAC xenograft experiments in mice is depicted in D. PANC-1 cells (2 × 10^6 cells/mouse) were subcutaneously (s.c.) injected in the right flank of female athymic nude mice. […] Tumor volumes were measured every second day using a digital caliper. […] At the end of the 2 weeks, mice were sacrificed and tumors were dissected (F).
For quantification of apoptosis by Fluorescence Activated Cell Sorting (FACS), PANC-1 and PaTu8988T cells were seeded in 6-well plates (250 × 10^3 cells/well) and cultured in the absence or presence of compounds. After 24 h, gemcitabine was added or not for another 48 h. After harvesting and washing, unfixed cells (0.5–1 × 10^6) were incubated with FITC-labeled Annexin V and/or PI (BD Pharmingen) according to the manufacturer’s instructions. All samples were analyzed using a BD FACSCalibur flow cytometer (BD Bioscience). Data were acquired using the CellQuestPro program and analyzed with the FlowJo (FlowJo LLC) software.
After 24 hours, gemcitabine (GEM, 1 µM) was added (+) or not
(-) for another incubation of 48 hours. Subsequently, the apoptotic cell fraction was assessed by flow cytometry using FITC-labeled Annexin V (AV) and propidium iodide (PI) staining and quantified in % (mean ± SD, n=3-4; ns: not significant, *: p ≤0.05, **: p ≤0.01, ***: p ≤0.001, ****: p ≤0.0001, using the student t-test).
(Flow cytometry measures light scatter and fluorescence of single cells or particles in a stream.)

Assay [2] has as its system PaTu8988T cells. The assay is described as follows: CaspaseGlo 3/7 apoptosis assay, PaTu8988T. Format: cell-based, human. The settings on record: TR-07 10 μM or gemcitabine 10 and 25 nM, 72 h. The method, then: as §1, §2
The next assay has as its system PANC-1 xenografts. The assay is described as follows: PDAC xenograft mouse model, tumor growth. Format: in vivo. The conditions noted are these: female athymic nude mice, intraperitoneal, 2 weeks; 150 mg/kg TR-07 daily, 10 mg/kg gemcitabine every second day; n = 5.

For the molecule `Nc1ccn([C@@H]2O[C@H](CO)[C@@H](O)C2(F)F)c(=O)n1` [gemcitabine, reference compound], the “apoptosis, caspase 3/7 activity, single agent” value in the assay on PANC-1 cells and in the assay on PaTu8988T cells [2] was “underwent apoptosis in a gemcitabine concentration-dependent manner” in each case. In the assay on PaTu8988T cells [1], the viability at 10 µM was 78.6%. In the assay with PANC-1 xenografts, the “tumor growth of PANC-1 xenografts” value is reported as “significantly reduced the tumor growth compared to the control mice”.
